Reference: ChEMBL document CHEMBL4038335, “Neuroactive Steroids. 2. 3α-Hydroxy-3β-methyl-21-(4-cyano-1H-pyrazol-1'-yl)-19-nor-5β-pregnan-20-one (SAGE-217): A Clinical Next Generation Neuroactive Steroid Positive Allosteric Modulator of the (γ-Aminobutyric Acid)A Receptor” (J Med Chem, 2017)
In brackets after ≈: the same amount, converted by molar mass.

Tests used:
[1] = Protein binding in dog plasma at 10 uM after 6 hrs by equilibrium dialysis; format: ADME, cell-free, Canis lupus familiaris; conditions: read-out: PPB (converted)
[2] = Lipophilicity, logD of compound at 20 uM at pH 7.4 by HPLC/MS-MS analysis; format: physicochemical; conditions: buffer
[3] = Clearance in rat hepatocytes at 10 uM preincubated for 5 mins […] measured over 60 mins by HPLC-MS/MS analysis; format: ADME, cell-based, Hepatocyte; conditions: 1 h
[4] = Displacement of [35S]TBPS from GABA-A receptor in Sprague-Dawley rat cerebral cortex cell membranes after 90 mins in presence of GABA by liquid scintillation counting
[5] = Thermodynamic aqueous solubility of compound at 10 uM sonicated for 1 min followed by incubation for 1 hr by HPLC-MS/MS; format: physicochemical; conditions: buffer; read-out: Therm_solubility
[6] = target: Sodium channel protein type 5 subunit alpha (Homo sapiens, UniProt Q14524); assay: Inhibition of Nav1.5 (unknown origin) by patch clamp assay
[7] = Oral bioavailability in Beagle dog at 20 mg/kg measured up to 8 hrs post dose by LC/MS-MS analysis; format: ADME, organism-based, Canis lupus familiaris; conditions: in vivo
[8] = target: GABA-A receptor; alpha-1/beta-2/gamma-2 (Homo sapiens) (UniProt P14867+P47870+P18507); assay: (§1) Positive allosteric modulation of GABAA receptor alpha1beta2gamma2 (unknown origin) expressed in mouse LTK cells assessed as potentiation of GABA-mediated increase in channel current under holding potential at -80 mV at 0.01 to 10 uM preincubated for 30 secs followed by GABA stimulation for 2 secs by automated patch clamp assay relative to GABA; format: cell-based
[9] = Clearance in human hepatocytes at 10 uM preincubated for 5 mins […] measured over 60 mins by HPLC-MS/MS analysis; format: ADME, cell-based, Hepatocyte; conditions: 1 h
[10] = target: Voltage-dependent L-type calcium channel subunit alpha-1C (Homo sapiens, UniProt Q13936); assay: Inhibition of Cav1.2 (unknown origin) by patch clamp assay
[11] = Clearance in dog hepatic microsomes at 10 uM preincubated for 5 mins followed by NADPH addition measured over 60 mins by HPLC-MS/MS analysis; format: ADME, Canis lupus familiaris, Liver, Microsome; conditions: 1 h
[12] = Clearance in human hepatic microsomes at 10 uM preincubated for 5 mins followed by NADPH addition measured over 60 mins by HPLC-MS/MS analysis; format: ADME, Microsome; conditions: liver microsomes
[13] = target: Gamma-aminobutyric acid receptor subunit alpha-4/beta3/delta (Homo sapiens, UniProt O14764+P28472+P48169); assay: as §1, with “alpha4beta3delta” for “alpha1beta2gamma2”, “CHO” for “mouse LTK”, “mV” for “mV at 0.01 to 10 uM”, “manual” for “automated”, “assay” for “assay relative to GABA”; format: cell-based
[14] = target: Voltage-gated inwardly rectifying potassium channel KCNH2 (Homo sapiens, UniProt Q12809); assay: Inhibition of human ERG by patch clamp assay
Mus musculus = assay: Anticonvulsant activity in PTZ-induced seizure mouse model at 0.3 to 3 mg/kg, ip; format: functional
[15] = Clearance in mouse hepatocytes at 10 uM preincubated for 5 mins […] measured over 60 mins by HPLC-MS/MS analysis; format: ADME, cell-based, Hepatocyte; conditions: read-out: CLH (converted)
Cytochrome P450 2D6 = Cytochrome P450 2D6 (Homo sapiens, UniProt P10635); assay: Inhibition of CYP2D6 (unknown origin); format: ADME
[16] = Oral bioavailability in CD1 mouse at 20 mg/kg measured up to 8 hrs post dose by LC/MS-MS analysis; format: ADME, organism-based; conditions: in vivo
Cytochrome P450 2B6 = Cytochrome P450 2B6 (Homo sapiens, UniProt P20813); assay: Inhibition of CYP2B6 (unknown origin); format: ADME
[17] = Protein binding in human plasma at 10 uM after 6 hrs by equilibrium dialysis; format: ADME, cell-free; conditions: read-out: PPB (converted)
[18] = target: Transient receptor potential cation channel subfamily V member 1 (Homo sapiens) (UniProt Q8NER1); assay: Antagonist activity at human TRPV1 expressed in CHOK1 cells assessed as inhibition of capsaicin-induced Ca2+ flux at 10 uM by spectrophotometric analysis; format: cell-based
[19] = Protein binding in mouse plasma at 10 uM after 6 hrs by equilibrium dialysis; format: ADME, cell-free; conditions: read-out: PPB
[20] = target: Sigma non-opioid intracellular receptor 1 (Homo sapiens) (UniProt Q99720); assay: Displacement of [3H](+)pentazocine from human sigma1-receptor at 10 uM after 120 mins by scintillation counting
[21] = Clearance in Beagle dog at 5 mg/kg, iv or 20 mg/kg, po measured up to 8 hrs post dose by LC/MS-MS analysis; format: ADME, organism-based, Canis lupus familiaris; conditions: in vivo
[22] = target: Kv channel-interacting protein 2/Potassium voltage-gated channel subfamily D member 3 (Homo sapiens, UniProt Q9NS61+Q9UK17); assay: Inhibition of Kv4.3(unknown origin)/KChIP2.2 (unknown origin) by patch clamp assay
[23] = Clearance in Sprague-Dawley rat at 5 mg/kg, iv or 20 mg/kg, po measured up to 8 hrs post dose by LC/MS-MS analysis; format: ADME, organism-based; conditions: in vivo
Canis familiaris = assay: Clearance in Beagle dog at 5 mg/kg, iv or 20 mg/kg, po measured up to 8 hrs post dose by LC/MS-MS analysis relative to hepatic blood flow; format: ADME, organism-based, Canis lupus familiaris; conditions: in vivo
Cytochrome P450 1A2 = Cytochrome P450 1A2 (Homo sapiens, UniProt P05177); assay: Inhibition of CYP1A2 (unknown origin); format: ADME
[24] = target: Potassium voltage-gated channel subfamily A member 5 (Homo sapiens, UniProt P22460); assay: Inhibition of Kv1.5 (unknown origin) by patch clamp assay
[25] = target: GABA-A receptor alpha-4/beta-3/delta (Homo sapiens, UniProt P28472+P48169+); assay: as §1, with “alpha4beta3delta” for “alpha1beta2gamma2”, “CHO” for “mouse LTK”, “manual” for “automated”; format: cell-based; conditions: 2 s
[26] = Clearance in CD1 mouse at 5 mg/kg, iv or 20 mg/kg, po measured up to 8 hrs post dose by LC/MS-MS analysis; format: ADME, organism-based; conditions: in vivo
Cytochrome P450 3A4 = Cytochrome P450 3A4 (Homo sapiens, UniProt P08684); assay: Inhibition of CYP3A4 (unknown origin); format: ADME
[27] = Clearance in rat hepatic microsomes at 10 uM preincubated for 5 mins followed by NADPH addition measured over 60 mins by HPLC-MS/MS analysis; format: ADME, Microsome; conditions: liver microsomes
[28] = Clearance in dog hepatocytes at 10 uM preincubated for 5 mins […] measured over 60 mins by HPLC-MS/MS analysis; format: ADME, cell-based, Canis lupus familiaris, Hepatocyte; conditions: 1 h
Cytochrome P450 2C9 = Cytochrome P450 2C9 (Homo sapiens, UniProt P11712); assay: Inhibition of CYP2C9 (unknown origin); format: ADME
[29] = Protein binding in rat plasma at 10 uM after 6 hrs by equilibrium dialysis; format: ADME, cell-free; conditions: read-out: PPB (converted)
[30] = target: Inward rectifier potassium channel 2 (Homo sapiens, UniProt P63252); assay: Inhibition of Kir2.1 (unknown origin) by patch clamp assay
Cytochrome P450 2C19 = Cytochrome P450 2C19 (Homo sapiens, UniProt P33261); assay: Inhibition of CYP2C19 (unknown origin); format: ADME
[31] = Clearance in mouse hepatic microsomes at 10 uM preincubated for 5 mins followed by NADPH addition measured over 60 mins by HPLC-MS/MS analysis; format: ADME, Microsome; conditions: liver microsomes
[32] = target: Voltage-gated potassium channel, IKs; KCNQ1(Kv7.1)/KCNE1(MinK) (Homo sapiens, UniProt P15382+P51787); assay: Inhibition of KCNQ1/minK (unknown origin) by patch clamp assay
[33] = Ratio of drug level in Sprague-Dawley rat brain to plasma at 5 mg/kg, iv measured at 30 mins post dose by LC/MS-MS analysis; format: ADME, organism-based; conditions: read-out: BPR
[34] = target: Glycine receptor subunit alpha-1 (Homo sapiens) (UniProt P23415); assay: Binding affinity to human glycine alpha 1 receptor expressed in HEK293 cells at 10 uM by IonFlux based assay; format: cell-based
[35] = target: Potassium/sodium hyperpolarization-activated cyclic nucleotide-gated channel 2 (Homo sapiens, UniProt Q9UL51); assay: Inhibition of HCN2 (unknown origin) by patch clamp assay
[36] = Oral bioavailability in Sprague-Dawley rat at 20 mg/kg measured up to 8 hrs post dose by LC/MS-MS analysis; format: ADME, organism-based; conditions: in vivo

Sequence of Transient receptor potential cation channel subfamily V member 1 (Homo sapiens) (Q8NER1 whole entry): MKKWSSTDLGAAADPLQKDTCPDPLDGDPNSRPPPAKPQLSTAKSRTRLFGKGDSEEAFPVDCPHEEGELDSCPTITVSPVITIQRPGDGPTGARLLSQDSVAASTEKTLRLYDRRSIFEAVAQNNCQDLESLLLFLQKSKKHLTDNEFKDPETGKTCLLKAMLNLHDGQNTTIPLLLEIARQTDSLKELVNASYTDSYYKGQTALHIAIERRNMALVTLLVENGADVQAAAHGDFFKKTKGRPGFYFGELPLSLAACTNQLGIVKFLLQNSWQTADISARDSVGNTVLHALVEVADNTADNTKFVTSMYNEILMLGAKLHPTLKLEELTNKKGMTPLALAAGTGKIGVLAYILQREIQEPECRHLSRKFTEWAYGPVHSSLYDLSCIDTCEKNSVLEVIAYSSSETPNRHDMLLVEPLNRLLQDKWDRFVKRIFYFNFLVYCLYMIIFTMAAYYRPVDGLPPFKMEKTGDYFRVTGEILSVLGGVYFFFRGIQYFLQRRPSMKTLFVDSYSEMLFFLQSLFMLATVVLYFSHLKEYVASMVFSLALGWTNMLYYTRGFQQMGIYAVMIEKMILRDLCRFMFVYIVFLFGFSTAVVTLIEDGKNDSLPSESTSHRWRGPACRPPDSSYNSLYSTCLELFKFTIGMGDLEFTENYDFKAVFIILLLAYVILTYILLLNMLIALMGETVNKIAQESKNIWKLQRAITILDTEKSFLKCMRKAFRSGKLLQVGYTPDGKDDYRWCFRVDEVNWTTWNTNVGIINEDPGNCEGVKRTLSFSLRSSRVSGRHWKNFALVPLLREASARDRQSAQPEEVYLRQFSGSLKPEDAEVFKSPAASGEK
Sequence of Cytochrome P450 2B6 (P20813 whole entry): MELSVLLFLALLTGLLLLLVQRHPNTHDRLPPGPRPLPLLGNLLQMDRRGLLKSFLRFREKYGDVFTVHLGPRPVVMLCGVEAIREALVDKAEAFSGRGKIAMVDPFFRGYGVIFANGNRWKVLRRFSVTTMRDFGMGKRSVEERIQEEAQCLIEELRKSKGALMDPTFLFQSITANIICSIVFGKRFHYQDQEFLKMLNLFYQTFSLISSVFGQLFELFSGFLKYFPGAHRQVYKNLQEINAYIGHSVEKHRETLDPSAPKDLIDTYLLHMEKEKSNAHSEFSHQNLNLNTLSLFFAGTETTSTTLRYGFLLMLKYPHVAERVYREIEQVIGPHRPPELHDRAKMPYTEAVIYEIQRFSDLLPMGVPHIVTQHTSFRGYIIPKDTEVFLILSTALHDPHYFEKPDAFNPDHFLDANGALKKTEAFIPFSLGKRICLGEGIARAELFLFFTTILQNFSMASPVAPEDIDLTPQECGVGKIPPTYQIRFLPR
Sequence of Sigma non-opioid intracellular receptor 1 (Homo sapiens) (Q99720 whole entry): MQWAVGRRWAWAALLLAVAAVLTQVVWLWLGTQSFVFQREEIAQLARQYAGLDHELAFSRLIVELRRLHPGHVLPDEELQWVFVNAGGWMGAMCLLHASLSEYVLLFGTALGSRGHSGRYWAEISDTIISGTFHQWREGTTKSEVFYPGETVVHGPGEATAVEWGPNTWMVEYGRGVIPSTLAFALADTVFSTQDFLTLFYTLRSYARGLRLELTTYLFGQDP
Sequence of Voltage-gated potassium channel, IKs; KCNQ1(Kv7.1)/KCNE1(MinK) (P51787 whole entry): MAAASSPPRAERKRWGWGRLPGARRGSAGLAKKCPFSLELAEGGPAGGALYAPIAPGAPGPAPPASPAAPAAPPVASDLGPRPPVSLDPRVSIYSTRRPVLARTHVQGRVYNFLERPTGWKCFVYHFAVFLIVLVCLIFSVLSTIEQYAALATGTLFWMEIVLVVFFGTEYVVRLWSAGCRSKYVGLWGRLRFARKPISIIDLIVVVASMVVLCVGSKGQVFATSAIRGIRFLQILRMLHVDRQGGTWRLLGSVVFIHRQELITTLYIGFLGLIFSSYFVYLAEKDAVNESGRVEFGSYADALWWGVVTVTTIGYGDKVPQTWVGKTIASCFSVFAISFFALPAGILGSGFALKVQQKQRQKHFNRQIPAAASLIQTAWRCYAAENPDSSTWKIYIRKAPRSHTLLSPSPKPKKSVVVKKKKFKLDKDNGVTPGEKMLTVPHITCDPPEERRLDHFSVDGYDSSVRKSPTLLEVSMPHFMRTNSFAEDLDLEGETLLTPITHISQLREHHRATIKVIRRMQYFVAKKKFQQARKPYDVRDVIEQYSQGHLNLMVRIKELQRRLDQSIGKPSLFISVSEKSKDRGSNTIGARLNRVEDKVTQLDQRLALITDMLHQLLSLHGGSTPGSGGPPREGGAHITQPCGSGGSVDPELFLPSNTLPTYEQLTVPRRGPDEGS
Sequence of Kv channel-interacting protein 2/Potassium voltage-gated channel subfamily D member 3 (Q9UK17 whole entry): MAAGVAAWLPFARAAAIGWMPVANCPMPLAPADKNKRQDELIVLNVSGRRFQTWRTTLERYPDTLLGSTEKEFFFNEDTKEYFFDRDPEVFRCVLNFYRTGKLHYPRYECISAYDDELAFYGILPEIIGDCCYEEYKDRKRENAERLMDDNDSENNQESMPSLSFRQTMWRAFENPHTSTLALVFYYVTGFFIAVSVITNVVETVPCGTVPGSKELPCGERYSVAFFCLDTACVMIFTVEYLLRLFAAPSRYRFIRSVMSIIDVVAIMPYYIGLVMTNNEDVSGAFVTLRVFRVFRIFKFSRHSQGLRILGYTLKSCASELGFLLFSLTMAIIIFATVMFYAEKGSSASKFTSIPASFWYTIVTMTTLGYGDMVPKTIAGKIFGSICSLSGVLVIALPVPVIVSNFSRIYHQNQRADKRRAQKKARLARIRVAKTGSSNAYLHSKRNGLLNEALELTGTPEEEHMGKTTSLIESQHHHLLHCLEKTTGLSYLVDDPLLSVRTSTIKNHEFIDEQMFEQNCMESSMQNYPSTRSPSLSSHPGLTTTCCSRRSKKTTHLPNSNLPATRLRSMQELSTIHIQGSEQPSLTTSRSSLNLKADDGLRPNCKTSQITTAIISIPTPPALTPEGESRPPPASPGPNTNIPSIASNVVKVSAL
Sequence of Kv channel-interacting protein 2/Potassium voltage-gated channel subfamily D member 3 (Q9NS61 whole entry): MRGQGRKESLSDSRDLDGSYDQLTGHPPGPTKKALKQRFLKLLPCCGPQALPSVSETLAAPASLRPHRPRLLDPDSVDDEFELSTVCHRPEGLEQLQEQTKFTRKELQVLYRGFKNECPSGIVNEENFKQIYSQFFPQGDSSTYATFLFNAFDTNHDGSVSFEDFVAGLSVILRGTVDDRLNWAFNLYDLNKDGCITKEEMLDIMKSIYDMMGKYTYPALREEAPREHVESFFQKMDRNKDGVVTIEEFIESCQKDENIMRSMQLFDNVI
Sequence of Potassium/sodium hyperpolarization-activated cyclic nucleotide-gated channel 2 (Q9UL51 whole entry): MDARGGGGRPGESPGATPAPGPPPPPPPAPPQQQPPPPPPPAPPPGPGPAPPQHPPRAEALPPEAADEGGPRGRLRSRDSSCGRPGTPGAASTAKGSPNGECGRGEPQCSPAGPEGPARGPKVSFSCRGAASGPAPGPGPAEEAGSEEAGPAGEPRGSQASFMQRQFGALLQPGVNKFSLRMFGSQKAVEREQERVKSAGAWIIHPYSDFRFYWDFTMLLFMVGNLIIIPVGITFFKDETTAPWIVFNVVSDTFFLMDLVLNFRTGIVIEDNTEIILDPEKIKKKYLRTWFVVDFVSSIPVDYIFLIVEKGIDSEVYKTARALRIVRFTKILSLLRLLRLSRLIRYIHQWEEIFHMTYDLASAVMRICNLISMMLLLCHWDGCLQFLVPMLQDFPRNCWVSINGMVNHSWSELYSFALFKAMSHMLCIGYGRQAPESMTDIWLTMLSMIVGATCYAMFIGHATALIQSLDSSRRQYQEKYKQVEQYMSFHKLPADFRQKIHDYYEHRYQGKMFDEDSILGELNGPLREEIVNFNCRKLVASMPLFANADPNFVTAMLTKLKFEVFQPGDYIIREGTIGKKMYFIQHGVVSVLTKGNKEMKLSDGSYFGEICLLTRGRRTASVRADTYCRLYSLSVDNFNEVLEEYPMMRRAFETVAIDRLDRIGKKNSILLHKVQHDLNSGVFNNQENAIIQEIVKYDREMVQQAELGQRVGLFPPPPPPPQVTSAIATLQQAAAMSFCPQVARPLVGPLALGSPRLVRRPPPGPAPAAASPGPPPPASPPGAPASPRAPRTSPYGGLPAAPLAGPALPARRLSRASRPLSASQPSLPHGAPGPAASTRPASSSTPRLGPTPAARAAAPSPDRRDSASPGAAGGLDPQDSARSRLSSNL
Sequence of Potassium voltage-gated channel subfamily A member 5 (P22460 whole entry): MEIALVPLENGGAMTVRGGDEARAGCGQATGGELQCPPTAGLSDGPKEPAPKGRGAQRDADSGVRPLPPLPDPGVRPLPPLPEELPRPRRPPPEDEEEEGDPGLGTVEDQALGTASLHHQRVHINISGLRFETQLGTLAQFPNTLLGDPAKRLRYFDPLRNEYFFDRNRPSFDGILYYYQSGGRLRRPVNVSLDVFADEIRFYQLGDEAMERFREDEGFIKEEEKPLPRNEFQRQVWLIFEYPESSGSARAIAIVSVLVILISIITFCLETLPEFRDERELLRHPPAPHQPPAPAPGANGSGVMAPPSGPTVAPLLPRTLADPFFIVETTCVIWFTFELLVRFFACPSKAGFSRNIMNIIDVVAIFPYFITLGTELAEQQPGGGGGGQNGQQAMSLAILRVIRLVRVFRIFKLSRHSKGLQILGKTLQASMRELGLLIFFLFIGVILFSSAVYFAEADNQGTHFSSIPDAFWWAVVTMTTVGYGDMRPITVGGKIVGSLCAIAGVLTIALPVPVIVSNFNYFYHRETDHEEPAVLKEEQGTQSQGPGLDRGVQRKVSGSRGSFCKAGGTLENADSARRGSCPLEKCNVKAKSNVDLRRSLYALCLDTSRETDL

SMILES: C[C@@]1(O)CC[C@H]2[C@H](CC[C@@H]3[C@@H]2CC[C@]2(C)[C@@H](C(=O)Cn4cc(C#N)cn4)CC[C@@H]32)C1 [ZURANOLONE]
- fraction unbound at 6 h, 10 µM [1]: 0.016
- logD at 20 µM [2]: 4.6
- CLH [3]: 17 mL/min/kg
- IC50 [4]: 0.007 µM
- solubility thermodynamic at 1 h, 10 µM [5]: 2 µM (≈ 0.819 µg/mL)
- IC50 [6]: > 30 µM
- bioavailability [7]: 68%
- Emax [8]: 473%
- CLH [9]: 15 mL/min/kg
- IC50 [10]: > 30 µM
- CLH [11]: 10 mL/min/kg
- CLhep predicted at 10 µM [12]: 3.33 mL/min/kg
- EC50 [13]: 0.299 µM
- IC50 [14]: > 30 µM
- MEC (Mus musculus): 85 nM
- CLint scaled at 10 µM [15]: 102 mL/min/kg
- IC50 (Cytochrome P450 2D6): > 30 µM
- bioavailability [16]: 62%
- IC50 (Cytochrome P450 2B6): > 30 µM
- fraction unbound at 6 h, 10 µM [17]: 0.012
- inhibition [18]: 95%
- fraction unbound at 6 h, 10 µM [19]: 0.01
- inhibition [20]: 88%
- clearance [21]: 1.67 mL/min/kg
- IC50 [22]: > 30 µM
- clearance [23]: 23.3 mL/min/kg
- CL (Canis familiaris): < 10%
- IC50 (Cytochrome P450 1A2): > 30 µM
- IC50 [24]: > 30 µM
- Emax [25]: 574%
- clearance [26]: 25 mL/min/kg
- IC50 (Cytochrome P450 3A4): > 30 µM
- CLhep predicted at 10 µM [27]: 36.7 mL/min/kg
- CLH [28]: 10 mL/min/kg
- IC50 (Cytochrome P450 2C9): > 30 µM
- fraction unbound at 6 h, 10 µM [29]: 0.012
- IC50 [30]: > 30 µM
- IC50 (Cytochrome P450 2C19): > 30 µM
- CLhep predicted at 10 µM [31]: 70 mL/min/kg
- IC50 [32]: > 30 µM
- Kp at 0.5 h [33]: 4.2
- Activity [34]: 57%
- IC50 [35]: > 30 µM
- bioavailability [36]: 32%
